# Legend:
# [1] = Drug level in HCT116 xenografted mouse tumor at 50 mg/kg, ip after 10 hrs; format: ADME, organism-based, Neoplasm; design: dose 50 mg/kg, route intraperitoneal; conditions: human, tumor (HCT116 xenograft), read-out: Drug uptake
# Aurora kinase A = molecular target: T1, Aurora kinase A (Homo sapiens, UniProt O14965)
# T1 sequence (O14965 whole entry): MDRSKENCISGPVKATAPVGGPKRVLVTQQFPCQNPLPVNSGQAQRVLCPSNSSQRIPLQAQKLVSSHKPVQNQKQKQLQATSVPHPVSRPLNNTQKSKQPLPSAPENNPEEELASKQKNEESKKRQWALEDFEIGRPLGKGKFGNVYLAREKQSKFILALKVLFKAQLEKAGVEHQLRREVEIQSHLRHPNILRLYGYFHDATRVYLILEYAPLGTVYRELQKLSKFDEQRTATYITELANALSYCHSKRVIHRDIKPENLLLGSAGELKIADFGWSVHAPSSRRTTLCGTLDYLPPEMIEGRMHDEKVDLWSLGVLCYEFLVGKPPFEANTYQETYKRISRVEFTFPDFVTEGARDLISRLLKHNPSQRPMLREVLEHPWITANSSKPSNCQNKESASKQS
# Description: Inhibition of Aurora A by radiometric assay
# Mus musculus [2] = assay: Decrease in histone H3 phosphorylation in human HCT116 cells xenografted mouse at 100 mg/kg, ip after 10 hrs; format: functional; conditions: HCT-116, ip, route intraperitoneal
# Mus musculus [3] = assay: Decrease in histone H3 phosphorylation in human HCT116 cells xenografted mouse at 50 mg/kg, ip after 6 hrs; format: functional; conditions: HCT-116, ip, route intraperitoneal
# HCT-116 [4] = assay: Decrease in histone H3 phosphorylation in human HCT116 cells after 16 hrs by Western blot; conditions: HCT-116, 16 h
# [5] = Drug level in HCT116 xenografted mouse tumor at 50 mg/kg, ip after 6 hrs; format: ADME, organism-based, Neoplasm; design: dose 50 mg/kg, route intraperitoneal; conditions: human, tumor (HCT116 xenograft), read-out: Drug uptake
# Mus musculus [6] = assay: Decrease in histone H3 phosphorylation in human HCT116 cells xenografted mouse at 50 mg/kg, ip after 10 hrs; format: functional; conditions: HCT-116, ip, route intraperitoneal
# HCT-116 [7] = assay: Antiproliferative activity against human HCT116 cells assessed as BrdU incorporation; format: functional, cell-based
# [8] = Drug level in HCT116 xenografted mouse tumor at 100 mg/kg, ip after 6 hrs; format: ADME, organism-based, Neoplasm; design: dose 100 mg/kg, route intraperitoneal; conditions: human, tumor (HCT116 xenograft), read-out: Drug uptake
# Aurora kinase B = Aurora kinase B (Homo sapiens, UniProt Q96GD4); assay: Inhibition of Aurora B by radiometric assay
# [9] = Drug level in HCT116 xenografted mouse tumor at 100 mg/kg, ip after 10 hrs; format: ADME, organism-based, Neoplasm; design: dose 100 mg/kg, route intraperitoneal; conditions: human, tumor (HCT116 xenograft), read-out: Drug uptake
# HCT-116 [10] = assay: Cell cycle arrest in human HCT116 cells assessed as accumulation of 4N DNA phase after 16 hrs by FACS; conditions: HCT-116, 16 h
# Mus musculus [11] = assay: Decrease in histone H3 phosphorylation in human HCT116 cells xenografted mouse at 100 mg/kg, ip after 6 hrs; format: functional; conditions: HCT-116, ip, route intraperitoneal
# HCT-116 [12] = assay: Antitumor activity against human HCT116 cells xenografted in mouse at 100 mg/kg, ip administered twice weekly for 3 weeks; format: functional; conditions: HCT-116, ip, 504 h, route intraperitoneal, read-out: TGI
# Chain of Aurora kinase B (Q96GD4 whole entry): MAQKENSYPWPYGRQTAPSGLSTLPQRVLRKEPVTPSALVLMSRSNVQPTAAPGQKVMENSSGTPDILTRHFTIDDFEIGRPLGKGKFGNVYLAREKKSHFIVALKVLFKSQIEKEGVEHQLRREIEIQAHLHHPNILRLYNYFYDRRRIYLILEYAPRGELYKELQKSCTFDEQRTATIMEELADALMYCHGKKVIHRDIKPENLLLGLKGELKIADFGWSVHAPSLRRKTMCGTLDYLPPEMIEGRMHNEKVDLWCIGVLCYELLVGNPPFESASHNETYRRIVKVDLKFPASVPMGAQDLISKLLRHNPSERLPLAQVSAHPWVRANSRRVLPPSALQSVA
SMILES,IC50 (Aurora kinase A),inhibition in vivo at 50 mg/kg (Mus musculus [3]),EC50 (HCT-116 [4]),inhibition in vivo at 50 mg/kg (Mus musculus [6]),EC50 (HCT-116 [7]),IC50 (Aurora kinase B),EC50 (HCT-116 [10]),other results
O=C(Nc1ccc(Cl)c(Cl)c1)Nc1ncc(CCNc2ncnc3ccsc23)s1,0.096 µM,0%,0.016 µM,0%,0.024 µM,0.013 µM,0.016 µM,concentration at 10 h [1]: 12.5 µM; inhibition in vivo at 100 mg/kg (Mus musculus [2]): 25%; concentration at 6 h [5]: 21.3 µM; concentration at 6 h [8]: 49.5 µM; concentration at 10 h [9]: 54.8 µM; inhibition in vivo at 100 mg/kg (Mus musculus [11]): 25%
Cc1cccc(NC(=O)Nc2ncc(CCNc3ncnc4ccsc34)s2)c1,0.009 µM,–,–,–,0.019 µM,0.054 µM,< 0.016 µM,–
O=C(Nc1ccc(Cl)cc1)Nc1ncc(CCNc2ncnc3ccsc23)s1,0.039 µM,–,–,–,0.03 µM,–,0.016 µM,–
O=C(Cc1cccc(C(F)(F)F)c1)Nc1ncc(CCNc2ncnc3ccsc23)s1,> 10 µM,–,–,–,–,0.58 µM,–,IC50 (HCT-116 [7]): > 10 µM
O=C(Nc1ncc(CCNc2ncnc3ccsc23)s1)Nc1cccc2cc[nH]c12,0.03 µM,75%,0.016 µM,75%,0.031 µM,0.019 µM,0.016 µM,concentration at 10 h [1]: 3.67 µM; inhibition in vivo at 100 mg/kg (Mus musculus [2]): 75%; concentration at 6 h [5]: 4.82 µM; concentration at 6 h [8]: 16.9 µM; concentration at 10 h [9]: 4.36 µM; inhibition in vivo at 100 mg/kg (Mus musculus [11]): 75%
COc1cccc(NC(=O)Nc2ncc(CCNc3ncnc4ccsc34)s2)c1,0.05 µM,–,–,–,0.034 µM,–,0.016 µM,–
O=C(Nc1ccc(F)c(Cl)c1)Nc1ncc(CCNc2ncnc3ccsc23)s1,0.011 µM,75%,< 0.016 µM,25%,0.005 µM,0.051 µM,< 0.016 µM,concentration at 10 h [1]: 15.6 µM; inhibition in vivo at 100 mg/kg (Mus musculus [2]): 50%; concentration at 6 h [5]: 25.8 µM; concentration at 6 h [8]: 112 µM; concentration at 10 h [9]: 56.1 µM; inhibition in vivo at 100 mg/kg (Mus musculus [11]): 75%
O=C(Nc1cccc(C(F)(F)F)c1)Nc1cn(CCNc2ncnc3ccsc23)nn1,0.25 µM,–,–,–,–,–,–,–
O=C(Nc1cccc(CCN2CCC2)c1)Nc1ncc(CCNc2ncnc3ccsc23)s1,0.053 µM,0%,0.063 µM,0%,0.121 µM,0.12 µM,0.016 µM,concentration at 10 h [1]: < 1 µM; concentration at 6 h [5]: < 1 µM
O=C(Nc1cccc(C(F)(F)F)c1)Nc1ncc(CCNc2ncnc3ccsc23)s1,–,75%,< 0.016 µM,50%,–,0.014 µM,< 0.016 µM,inhibition in vivo at 100 mg/kg (Mus musculus [2]): 75%; inhibition in vivo at 100 mg/kg (Mus musculus [11]): 75%
O=C(Nc1ccc(CCNc2ncnc3ccsc23)cc1)c1cccc(C(F)(F)F)c1,3.2 µM,–,–,–,–,–,–,–
O=C(Nc1cccc(F)c1)Nc1ncc(CCNc2ncnc3ccsc23)s1,0.023 µM,25%,< 0.016 µM,0%,0.006 µM,0.018 µM,< 0.016 µM,concentration at 10 h [1]: < 1 µM; inhibition in vivo at 100 mg/kg (Mus musculus [2]): 25%; concentration at 6 h [5]: 1.2 µM; concentration at 6 h [8]: 101 µM; concentration at 10 h [9]: 19.8 µM; inhibition in vivo at 100 mg/kg (Mus musculus [11]): 75%
O=C(Nc1ncc(CCNc2ncnc3ccsc23)s1)Nc1ccccc1Cl,0.28 µM,–,–,–,0.376 µM,–,> 0.25 µM,–
O=C(Nc1ccc(CCNc2ncnc3ccsc23)cc1)Nc1cccc(C(F)(F)F)c1,1.2 µM,–,–,–,–,–,–,–
O=C(Nc1cccc(C(F)(F)F)c1)Nc1nc(CCNc2ncnc3ccsc23)cs1,> 20 µM,–,–,–,–,–,–,–
O=C(Nc1cc(CN2CCCC2)cc(C(F)(F)F)c1)Nc1ncc(CCNc2ncnc3ccsc23)s1,0.004 µM,25%,0.016 µM,0%,0.006 µM,0.022 µM,< 0.016 µM,inhibition in vivo at 100 mg/kg (Mus musculus [2]): 25%; concentration at 6 h [8]: 6.2 µM; concentration at 10 h [9]: 8.76 µM; inhibition in vivo at 100 mg/kg (Mus musculus [11]): 50%
O=C(Nc1cccc(C(F)(F)F)c1)Nc1cn(CCNc2ncnc3ccsc23)cn1,1.2 µM,–,–,–,–,–,–,–
C#Cc1cccc(NC(=O)Nc2ncc(CCNc3ncnc4ccsc34)s2)c1,0.041 µM,–,–,–,0.014 µM,–,< 0.016 µM,–
O=C(Nc1ncc(CCNc2ncnc3ccsc23)s1)c1cccc(C(F)(F)F)c1,2.5 µM,–,–,–,–,–,1 µM,–
CS(=O)(=O)O.O=C(Nc1cccc(Cl)c1)Nc1ncc(CCNc2ncnc3ccsc23)s1 [SNS-314 MESYLATE],–,75%,< 0.016 µM,50%,–,–,< 0.016 µM,concentration at 10 h [1]: 3.72 µM; inhibition in vivo at 100 mg/kg (HCT-116 [12]): 96%; inhibition in vivo at 100 mg/kg (Mus musculus [2]): 75%; concentration at 6 h [5]: 9.07 µM; concentration at 6 h [8]: 28.6 µM; concentration at 10 h [9]: 31.6 µM; inhibition in vivo at 100 mg/kg (Mus musculus [11]): 75%
O=C(Nc1cccc(CCNc2ncnc3ccsc23)c1)Nc1cccc(C(F)(F)F)c1,> 20 µM,–,–,–,–,–,–,–
O=C(Nc1cccc(C(F)(F)F)c1)c1ccc(CCNc2ncnc3ccsc23)cc1,> 20 µM,–,–,–,–,–,–,–
O=C(Cc1ncc(CCNc2ncnc3ccsc23)s1)Nc1cccc(C(F)(F)F)c1,4.9 µM,–,–,–,–,0.442 µM,–,–
O=C(Nc1ccccc1)Nc1ncc(CCNc2ncnc3ccsc23)s1,0.052 µM,–,–,–,–,0.12 µM,–,–
O=C(Nc1ncc(CCNc2ncnc3ccsc23)s1)NC1CCCCC1,0.27 µM,–,–,–,0.072 µM,0.061 µM,0.063 µM,–
CN(C(=O)Nc1ncc(CCNc2ncnc3ccsc23)s1)c1ccccc1,7.2 µM,–,–,–,–,–,–,IC50 (HCT-116 [7]): > 10 µM

# Reference: ChEMBL document CHEMBL1156726, “Discovery of a potent and selective aurora kinase inhibitor” (Bioorg Med Chem Lett, 2008)
